Laboratory results as given in ChEMBL document CHEMBL1201862, “PubChem BioAssay data set” (2004).
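Grown in 96-well plates, cells were treated for 48 hours with each compound at five concentrations. Insufficient inhibition: endpoint recorded as highest concentration tested. GI50: concentration for 50% inhibition of growth.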 Activity calls are given as the source filed them. Rule as the data show it: active = GI50 up to about 1.1 µM and inactive = higher.

Columns and labels:
Experiment in all cases: inhibition of tumour cell growth, NCI panel, 48 h
SK-MEL-2 = tested on: SK-MEL-2
DMS-273 = tested on: DMS-273
KM12 = tested on: KM12
SK-MEL-28 = tested on: SK-MEL-28
UACC-257 = tested on: UACC-257
HOP-62 = tested on: HOP-62
XF498 = tested on: XF498
M19-MEL = tested on: M19-MEL
U-251 = tested on: U-251
OVCAR-8 = tested on: OVCAR-8
K562 = tested on: K562
CAKI-1 = tested on: CAKI-1
HCC 2998 = tested on: HCC 2998
A549 = tested on: A549
A498 = tested on: A498
HCT-116 = tested on: HCT-116
HT-29 = tested on: HT-29
NCI-H226 = tested on: NCI-H226
KM-20L2 = tested on: KM-20L2
LOX IMVI = tested on: LOX IMVI
LXFL 529 = tested on: LXFL 529
SF-268 = tested on: SF-268
M14 = tested on: M14
HCT-15 = tested on: HCT-15
MOLT-4 = tested on: MOLT-4
SW-620 = tested on: SW-620
IGROV-1 = tested on: IGROV-1
SR = tested on: SR
DLD-1 = tested on: DLD-1
SK-OV-3 = tested on: SK-OV-3
NCI-H522 = tested on: NCI-H522
EKVX = tested on: EKVX
SN12C = tested on: SN12C
RPMI-8226 = tested on: RPMI-8226
NCI-H23 = tested on: NCI-H23
NCI-H460 = tested on: NCI-H460
COLO 205 = tested on: COLO 205
SNB-19 = tested on: SNB-19
SF-539 = tested on: SF-539
SNB-75 = tested on: SNB-75
OVCAR-5 = tested on: OVCAR-5
SF-295 = tested on: SF-295
SNB-78 = tested on: SNB-78
OVCAR-3 = tested on: OVCAR-3
OVCAR-4 = tested on: OVCAR-4
UO-31 = tested on: UO-31
HL-60 = tested on: HL-60
786-0 = tested on: 786-0
UACC-62 = tested on: UACC-62
DMS-114 = tested on: DMS-114
TK-10 = tested on: TK-10
ACHN = tested on: ACHN
SK-MEL-5 = tested on: SK-MEL-5
RXF 393 = tested on: RXF 393
CCRF-CEM = tested on: CCRF-CEM

With `[N-]=[N+]=Nc1ccccc1Oc1ccccc1` the GI50 (SK-MEL-2) was > 100 µM (inactive), the GI50 (DMS-273) was > 100 µM (inactive) and the GI50 (KM12) was > 100 µM (inactive). For the same compound, the GI50 (SK-MEL-28) was > 100 µM (inactive), the GI50 (UACC-257) was > 100 µM (inactive) and the GI50 (HOP-62) was > 100 µM (inactive). The GI50 (XF498) was > 100 µM (inactive), the GI50 (M19-MEL) was > 100 µM (inactive) and the GI50 (U-251) was > 100 µM (inactive). For the same compound, the GI50 (OVCAR-8) was > 100 µM (inactive), the GI50 (K562) was > 100 µM (inactive) and the GI50 (CAKI-1) was > 100 µM (inactive). The GI50 (HCC 2998) was > 100 µM (inactive), the GI50 (A549) was > 100 µM (inactive) and the GI50 (A498) was > 100 µM (inactive). For the same compound, the GI50 (HCT-116) was > 100 µM (inactive), the GI50 (HT-29) was > 100 µM (inactive) and the GI50 (NCI-H226) was > 100 µM (inactive). For the same compound, the GI50 (KM-20L2) was > 100 µM (inactive), the GI50 (LOX IMVI) was > 100 µM (inactive) and the GI50 (LXFL 529) was > 100 µM (inactive). The GI50 (SF-268) was > 100 µM (inactive), the GI50 (M14) was > 100 µM (inactive) and the GI50 (HCT-15) was > 100 µM. The GI50 (MOLT-4) was > 100 µM (inactive), the GI50 (SW-620) was > 100 µM (inactive) and the GI50 (IGROV-1) was > 100 µM (inactive). The GI50 (SR) was > 100 µM (inactive), the GI50 (DLD-1) was > 100 µM (inactive) and the GI50 (SK-OV-3) was > 100 µM (inactive). For the same compound, the GI50 (NCI-H522) was > 100 µM (inactive), the GI50 (EKVX) was > 100 µM (inactive) and the GI50 (SN12C) was > 100 µM (inactive). For the same compound, the GI50 (RPMI-8226) was > 100 µM (inactive), the GI50 (NCI-H23) was > 100 µM (inactive) and the GI50 (NCI-H460) was > 100 µM (inactive). For the same compound, the GI50 (COLO 205) was > 100 µM (inactive), the GI50 (SNB-19) was > 100 µM (inactive) and the GI50 (SF-539) was > 100 µM (inactive). The GI50 (SNB-75) was > 100 µM (inactive), the GI50 (OVCAR-5) was > 100 µM (inactive) and the GI50 (SF-295) was > 100 µM (inactive). For the same compound, the GI50 (SNB-78) was > 100 µM (inactive), the GI50 (OVCAR-3) was > 100 µM (inactive) and the GI50 (OVCAR-4) was > 100 µM (inactive). The GI50 (UO-31) was > 100 µM (inactive), the GI50 (HL-60) was > 100 µM (inactive) and the GI50 (786-0) was > 100 µM (inactive). For the same compound, the GI50 (UACC-62) was > 100 µM (inactive), the GI50 (DMS-114) was > 100 µM (inactive) and the GI50 (TK-10) was > 100 µM (inactive). For the same compound, the GI50 (ACHN) was > 100 µM (inactive) and the GI50 (SK-MEL-5) was > 100 µM (inactive).

With `CCOC(=O)c1ccc(NC(=O)SCCC(=O)O)cc1` the GI50 (SK-MEL-2) was > 100 µM (inactive), the GI50 (DMS-273) was > 100 µM (inactive) and the GI50 (KM12) was > 100 µM (inactive). The GI50 (SK-MEL-28) was > 100 µM (inactive), the GI50 (UACC-257) was > 100 µM (inactive) and the GI50 (HOP-62) was > 100 µM (inactive). The GI50 (U-251) was > 100 µM (inactive), the GI50 (OVCAR-8) was 56.4 µM (inactive) and the GI50 (K562) was 63.1 µM (inactive). For the same compound, the GI50 (HCC 2998) was > 100 µM (inactive), the GI50 (A549) was > 100 µM (inactive) and the GI50 (A498) was > 100 µM (inactive). For the same compound, the GI50 (HCT-116) was > 100 µM (inactive), the GI50 (HT-29) was 52.5 µM (inactive) and the GI50 (NCI-H226) was 3.15 µM (inactive). The GI50 (KM-20L2) was > 100 µM (inactive), the GI50 (LOX IMVI) was 64.3 µM (inactive) and the GI50 (LXFL 529) was 69 µM (inactive). The GI50 (SF-268) was 0.426 µM (active), the GI50 (M14) was > 100 µM (inactive) and the GI50 (HCT-15) was > 100 µM. For the same compound, the GI50 (MOLT-4) was 23 µM (inactive), the GI50 (SW-620) was > 100 µM (inactive) and the GI50 (IGROV-1) was 35.4 µM (inactive). The GI50 (SR) was > 100 µM (inactive), the GI50 (DLD-1) was > 100 µM (inactive) and the GI50 (RXF 393) was 8.04 µM (inactive). For the same compound, the GI50 (EKVX) was 0.841 µM (active), the GI50 (SN12C) was > 100 µM (inactive) and the GI50 (RPMI-8226) was > 100 µM (inactive). The GI50 (NCI-H23) was > 100 µM (inactive), the GI50 (NCI-H460) was > 100 µM (inactive) and the GI50 (COLO 205) was > 100 µM (inactive). The GI50 (SNB-19) was > 100 µM (inactive), the GI50 (SF-539) was > 100 µM (inactive) and the GI50 (SNB-75) was < 0.01 µM (active). For the same compound, the GI50 (OVCAR-5) was > 100 µM (inactive), the GI50 (SF-295) was > 100 µM (inactive) and the GI50 (SNB-78) was > 100 µM (inactive). The GI50 (OVCAR-3) was > 100 µM (inactive), the GI50 (UO-31) was > 100 µM (inactive) and the GI50 (HL-60) was > 100 µM (inactive). For the same compound, the GI50 (CCRF-CEM) was > 100 µM (inactive), the GI50 (786-0) was > 100 µM (inactive) and the GI50 (UACC-62) was 39.5 µM (inactive). For the same compound, the GI50 (DMS-114) was > 100 µM (inactive), the GI50 (TK-10) was > 100 µM (inactive) and the GI50 (ACHN) was 51.1 µM (inactive).
